Laboratory results from PubChem BioAssay (NCI).
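Values below derive from 48-hour exposures of cells grown in 96-well plates, with endpoints linearly interpolated between the two concentrations bracketing the appropriate inhibition level. GI50: concentration for 50% inhibition of growth. TGI is the concentration that stops growth completely.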

How the values were obtained:
Assay in all cases: NCI-60 cell line screen, 48 h
786-0 renal = tested on: 786-0 renal
A549 NSCLC = tested on: A549 NSCLC
ACHN renal = tested on: ACHN renal
BT-549 breast = tested on: BT-549 breast
CAKI-1 renal = tested on: CAKI-1 renal
CCRF-CEM leukemia = tested on: CCRF-CEM leukemia
COLO 205 colon = tested on: COLO 205 colon
DU-145 prostate = tested on: DU-145 prostate
EKVX NSCLC = tested on: EKVX NSCLC
HCC-2998 colon = tested on: HCC-2998 colon
HCT-116 colon = tested on: HCT-116 colon
HCT-15 colon = tested on: HCT-15 colon
HL-60(TB) leukemia = tested on: HL-60(TB) leukemia
HOP-62 NSCLC = tested on: HOP-62 NSCLC
HS 578T breast = tested on: HS 578T breast
HT29 colon = tested on: HT29 colon
IGROV1 ovarian = tested on: IGROV1 ovarian
K-562 leukemia = tested on: K-562 leukemia
KM12 colon = tested on: KM12 colon
LOX IMVI melanoma = tested on: LOX IMVI melanoma
M14 melanoma = tested on: M14 melanoma
MALME-3M melanoma = tested on: MALME-3M melanoma
MCF7 breast = tested on: MCF7 breast
MDA-MB-231 breast = tested on: MDA-MB-231 breast
MDA-MB-435 = tested on: MDA-MB-435
MOLT-4 leukemia = tested on: MOLT-4 leukemia
NCI-H226 lung = tested on: NCI-H226 lung
NCI-H23 lung = tested on: NCI-H23 lung
NCI-H460 lung = tested on: NCI-H460 lung
NCI-H522 lung = tested on: NCI-H522 lung
NCI/ADR-RES ovarian = tested on: NCI/ADR-RES ovarian
OVCAR-3 ovarian = tested on: OVCAR-3 ovarian
OVCAR-4 ovarian = tested on: OVCAR-4 ovarian
OVCAR-5 ovarian = tested on: OVCAR-5 ovarian
OVCAR-8 ovarian = tested on: OVCAR-8 ovarian
PC-3 prostate = tested on: PC-3 prostate
RPMI-8226 leukemia = tested on: RPMI-8226 leukemia
RXF 393 renal = tested on: RXF 393 renal
SF-268 CNS = tested on: SF-268 CNS
SF-295 CNS = tested on: SF-295 CNS
SF-539 CNS = tested on: SF-539 CNS
SK-MEL-2 melanoma = tested on: SK-MEL-2 melanoma
SK-MEL-28 melanoma = tested on: SK-MEL-28 melanoma
SK-MEL-5 melanoma = tested on: SK-MEL-5 melanoma
SK-OV-3 ovarian = tested on: SK-OV-3 ovarian
SN12C renal = tested on: SN12C renal
SNB-19 CNS = tested on: SNB-19 CNS
SNB-75 CNS = tested on: SNB-75 CNS
SW-620 colon = tested on: SW-620 colon
T-47D breast = tested on: T-47D breast
TK-10 renal = tested on: TK-10 renal
U251 CNS = tested on: U251 CNS
UACC-257 melanoma = tested on: UACC-257 melanoma
UACC-62 melanoma = tested on: UACC-62 melanoma
UO-31 renal = tested on: UO-31 renal

In the case of C[C@@H]1CC[C@@H]2[C@@H](C)C[C@H]3[C@@H]4C(C)(C)OC(=O)[C@]4(C)C(=O)[C@@]23C1=O, the TGI (786-0 renal) is reported as over 100 µM, the TGI (A549 NSCLC) is reported as over 100 µM and the TGI (ACHN renal) is reported as over 100 µM. The TGI (BT-549 breast) was over 100 µM, the TGI (CAKI-1 renal) was over 100 µM and the TGI (CCRF-CEM leukemia) was over 100 µM. It also gave a TGI (COLO 205 colon) of over 100 µM, a TGI (DU-145 prostate) of over 100 µM and a TGI (EKVX NSCLC) of over 100 µM. The TGI (HCC-2998 colon) was over 100 µM, the TGI (HCT-116 colon) was over 100 µM and the GI50 (HCT-15 colon) was 16.4 µM. The TGI (HCT-15 colon) was over 100 µM, the TGI (HL-60(TB) leukemia) was over 100 µM and the TGI (HOP-62 NSCLC) was over 100 µM. For the same molecule, the TGI (HS 578T breast) was over 100 µM, the TGI (HT29 colon) was over 100 µM and the TGI (IGROV1 ovarian) was over 100 µM. The TGI (K-562 leukemia) was over 100 µM, the TGI (KM12 colon) was over 100 µM and the TGI (LOX IMVI melanoma) was over 100 µM. For the same molecule, the TGI (M14 melanoma) was over 100 µM, the TGI (MALME-3M melanoma) was over 100 µM and the TGI (MCF7 breast) was over 100 µM. The GI50 (MDA-MB-231 breast) was over 100 µM, the TGI (MDA-MB-231 breast) was over 100 µM and the TGI (MDA-MB-435) was over 100 µM. For the same molecule, the TGI (MOLT-4 leukemia) was over 100 µM, the TGI (NCI-H226 lung) was over 100 µM and the TGI (NCI-H23 lung) was over 100 µM. The TGI (NCI-H460 lung) was over 100 µM, the GI50 (NCI-H522 lung) was over 100 µM and the TGI (NCI-H522 lung) was over 100 µM. For the same molecule, the TGI (NCI/ADR-RES ovarian) was over 100 µM, the GI50 (OVCAR-3 ovarian) was 75.9 µM and the TGI (OVCAR-3 ovarian) was over 100 µM. It also gave a TGI (OVCAR-4 ovarian) of over 100 µM, a TGI (OVCAR-5 ovarian) of over 100 µM and a TGI (OVCAR-8 ovarian) of over 100 µM. For the same molecule, the GI50 (PC-3 prostate) was over 100 µM, the TGI (PC-3 prostate) was over 100 µM and the TGI (RPMI-8226 leukemia) was over 100 µM. For the same molecule, the GI50 (RXF 393 renal) was over 100 µM, the TGI (RXF 393 renal) was over 100 µM and the TGI (SF-268 CNS) was over 100 µM. It also gave a TGI (SF-295 CNS) of over 100 µM, a TGI (SF-539 CNS) of over 100 µM and a GI50 (SK-MEL-2 melanoma) of over 100 µM. For the same molecule, the TGI (SK-MEL-2 melanoma) was over 100 µM, the TGI (SK-MEL-28 melanoma) was over 100 µM and the TGI (SK-MEL-5 melanoma) was over 100 µM. For the same molecule, the TGI (SK-OV-3 ovarian) was over 100 µM, the TGI (SN12C renal) was over 100 µM and the TGI (SNB-19 CNS) was over 100 µM. For the same molecule, the TGI (SNB-75 CNS) was over 100 µM, the TGI (SW-620 colon) was over 100 µM and the GI50 (T-47D breast) was 65.3 µM. It also gave a TGI (T-47D breast) of over 100 µM, a TGI (TK-10 renal) of over 100 µM and a GI50 (U251 CNS) of 31.9 µM. For the same molecule, the TGI (U251 CNS) was over 100 µM, the TGI (UACC-257 melanoma) was over 100 µM and the GI50 (UACC-62 melanoma) was 70 µM. For the same molecule, the TGI (UACC-62 melanoma) was over 100 µM, the GI50 (UO-31 renal) was over 100 µM and the TGI (UO-31 renal) was over 100 µM.
